# Test results taken from publication PMC11921344, “Antimicrobial peptide DiPGLa-H exhibits the most outstanding anti-infective activity among the PGLa variants based on a systematic comparison” (Applied and Environmental Microbiology, 2025).
# Where no end group is shown, it is not given here.
# What was measured:
# [1] = test system: S. aureus Mu50 biofilm; assay: Anti-biofilm assay (crystal violet); format: cell-based, Staphylococcus aureus MRSA
# Procedure: The anti-biofilm activity of DiPGLa-H was evaluated using a crystal violet staining method. Briefly, 100 µL of bacterial suspension at 1 × 10^6 CFU/mL was incubated with DiPGLa-H (0–64 µM) for 48 h. The biofilm formed was stained with 1% crystal violet, and the absorbance was measured at 595 nm. The biofilm formation and mature biofilm removal assays were conducted. For biofilm formation, a bacterial suspension was incubated with DiPGLa-H, and biofilm content was quantified. To assess mature biofilm removal, pre-formed biofilms were treated with DiPGLa-H for 24 h, followed by quantification. Detailed Protocol in Supplementary Materials.
# To test the ability of DiPGLa-H to […] on the test bacteria, a single colony was inoculated in MHB medium and incubated overnight at 37 °C and 180 r/min, and 1% of the bacterial suspension was taken and continued to be amplified and incubated for 2 h. […] The biofilm content was analyzed by measuring the absorbance value at 595 nm, and anhydrous ethanol was used as a blank control. […]
# [2] = test system: E. coli K88; assay: LPS binding assay (MIC with exogenous LPS); format: cell-based, Escherichia coli; conditions: increasing addition of external LPS, 37°C 24 h, 492 nm
# Procedure: LPS (Sigma, USA) and LTA (Sigma, USA) were dissolved in water at a concentration of 5 mg/mL. Fifty microliters of DiPGLa-H with a concentration gradient of 1–64 μM and 50 µL of LPS or LTA master mix with different concentration gradients were added to the 96-well plate in 2-fold dilution, and finally, 100 µL of diluted E. coli K88 or S. aureus Mu50 was added, incubated at 37°C in a constant temperature incubator for 24 h. The MIC was determined by absorbance at 492 nm using an enzyme marker as the lowest peptide concentration that inhibited 95% of the bacterial growth.
substance,measurement,setting,value
KIAKVALKALKIAKVALKAL-NH2 (C-terminus assumed) [DiPGLa-H],fold higher TIall vs PGLa-B1,,64 fold
same,inhibition of biofilm formation,"[1]; 1×10^6 CFU/mL, DiPGLa-H 0-64 µM, 48 h, crystal violet, 595 nm",inhibition at higher concentrations
same,concentration effectively eradicating biofilms,[1]; pre-formed biofilm treated with DiPGLa-H 0-64 µM for 24 h,above 16 µM
same,reduction of antibacterial activity by external LPS,[2],16 fold
